Results from patent US7223400B2, “Method to prepare compositions comprising yeast treated with electromagnetic energy” (Ultra Biotech Limited, priority 2003, dated 2007).

What was measured:
[1] = tested on: stomach cancer cell line S784; experiment: Mouse model of stomach cancer, survival time; type: in vivo, TA2 mice; conditions: for Number of live animals remaining in the groups after 30 days of treatment: 30 mice per group
Protocol: In group 2ADM, the mice were injected intravenously with 1.5×10^5 units of doxorubicin (adriamycin, ADM) per kg body weight per day.

[2] = tested on: stomach cancer cell line S784; experiment: TA2 mouse model of stomach cancer, growth of tumors; type: in vivo, TA2 mice; conditions: 31st day from tumor inoculation; 30 consecutive days; AY/NY 0.3 ml oral once per day, ADM 10^5 units per kg i.v. per day
Description: The growth of tumors in the mice was studied.
Numerous animal studies have reported the use of murine models in the study of treating stomach cancer. Methylcholanthrene (MC) is a well-known effective trigger of stomach cancer in mice. Accordingly, this experiment used MC in designing TA2 mouse model of human stomach cancer. Detailed description of the use of methylcholanthrene to induce stomach cancer can be found in Wang X. H. et al., 1984, Chin Med J (Engl) 97(3):215–22, which is incorporated herein by reference in its entirety.
The animals used for the experiments were TA2 mice, 6 to 8 weeks old (obtainable from the Second Military Medical University, Shanghai, China). Both male and females with an average weight of about 18 to 20 gram were used. The stomach cancer cell line S784 (obtainable from MC-treated TA2 mouse provided by the Tianjian Medical University, China) in a suspension containing about 1.2×10^7 viable tumor cells (about 0.2 ml cell culture) was injected subcutaneously into the animals.
In group ADM, the mice were injected intravenously with 10^5 units of doxorubicin (adriamycin, ADM) per kg body weight per day.

[3] = tested on: stomach cancer cells (cell line from a DMH-induced Wistar rat stomach cancer); experiment: Wistar rat model of transplanted stomach cancer, survival time; type: in vivo, Wistar rats; conditions: for Number of live animals remaining in the groups after 21 days of treatment: 30 rats per group
Protocol: In group 2ADM, the rats were injected intravenously with 1.5×10^5 units of doxorubicin (adriamycin, ADM) per kg body weight per day.

[4] = tested on: stomach cancer cells (cell line from a DMH-induced Wistar rat stomach cancer); experiment: Wistar rat model of transplanted stomach cancer, growth of the tumor; type: in vivo, Wistar rats; conditions: 22nd day from tumor inoculation; 21 consecutive days; AY/NY 0.8 ml oral once per day, ADM 10^5 units per kg i.v. per day
Description: The growth of the tumor in the rats was studied.
Numerous animal studies have reported the use of Wistar rats in the study of treating stomach cancer. 1,2-dimethylhydrazine (DMH) is a well-known effective trigger of stomach cancer in rats. Accordingly, this experiment used DMH in designing Wistar rat model of human stomach cancer. Detailed description of the use of 1,2-dimethylhydrazine to induce stomach cancer can be found in Watanabe H. et al., 1999, Jpn J Cancer Res. 90(11):1207–11, which is incorporated herein by reference in its entirety.
The animals used in the experiments were Wistar rats (obtainable from the Chinese Academy of Military Medical Sciences, Beijing, China). The stomach cancer cell line (obtainable from the First Military Medical University of China, Guangzhou, China) was generated in 1991 from a Wistar rat stomach cancer which was induced by subcutaneous injection of DMH. The rats were injected subcutaneously with 2.5×10^6 stomach cancer cells per animal.
In group AY, the rats received 0.8 ml of the biological composition once per day. In group NY, the rats received 0.8 ml of the untreated yeast cells once per day. In group ADM, the rats were injected intravenously with 10^5 units of doxorubicin (adriamycin, ADM) per kg body weight per day. In group CK1, the rats received 0.8 ml of physiological saline once per day. […]

[5] = 1 month after cessation of treatment
[6] = 2 months after cessation of treatment
[7] = 3 months after cessation of treatment
[8] = 4 months after cessation of treatment
[9] = 5 months after cessation of treatment
[10] = 6 months after cessation of treatment
[11] = mice that survived, observed over 6 months, 0.5 ml oral or ADM 1.5×10^5 units per kg i.v. per day
[12] = rats that survived, observed over 6 months, 1.2 ml oral or ADM 1.5×10^5 units per kg i.v. per day, 21 days

Structure (SMILES): COc1cccc2c1C(=O)c1c(O)c3c(c(O)c1C2=O)C[C@@](O)(C(=O)CO)C[C@@H]3O[C@H]1C[C@H](N)[C@H](O)[C@H](C)O1 [ADM, doxorubicin]
- Number of live animals remaining in the groups after 30 days of treatment ([1]; 0 month after cessation of treatment, 0.5 ml oral or ADM 1.5×10^5 units per kg i.v. per day): 30
- survival of mice bearing stomach cancer cells ([1]; 0.5 ml oral per day or ADM 1.5×10^5 units per kg per day, from injection of tumor cells): all died after four months
- Number of live animals remaining in the groups after 30 days of treatment [1, 5]: 30
- Number of live animals remaining in the groups after 30 days of treatment [1, 6]: 27
- Number of live animals remaining in the groups after 30 days of treatment [1, 7]: 16
- Number of live animals remaining in the groups after 30 days of treatment [1, 8]: 7
- Number of live animals remaining in the groups after 30 days of treatment [1, 9]: 0
- Number of live animals remaining in the groups after 30 days of treatment [1, 10]: 0
- mean weight of mice and standard deviation [1, 11]: all animals dead
- mean weight of stomach and standard deviation [1, 11]: all animals dead
- mean weight of tumor nodules and standard deviation [1, 11]: all animals dead
- mean weight of mice and standard deviation [2]: 19.8 ± 0.8 g
- mean weight of stomach and standard deviation [2]: 621 ± 17 mg
- mean weight of tumor nodules and standard deviation [2]: 346 ± 36 mg
- Number of live animals remaining in the groups after 21 days of treatment ([3]; 0 month after cessation of treatment, 1.2 ml oral or ADM 1.5×10^5 units per kg i.v. per day): 30
- Number of live animals remaining in the groups after 21 days of treatment [3, 5]: 30
- survival of rats bearing stomach cancer cells ([3]; 1.2 ml oral per day or ADM 1.5×10^5 units per kg per day, from injection of tumor cells): all died after four months
- Number of live animals remaining in the groups after 21 days of treatment [3, 6]: 30
- Number of live animals remaining in the groups after 21 days of treatment [3, 7]: 22
- Number of live animals remaining in the groups after 21 days of treatment [3, 8]: 17
- Number of live animals remaining in the groups after 21 days of treatment [3, 9]: 13
- Number of live animals remaining in the groups after 21 days of treatment [3, 10]: 0
- mean weight of rats and standard deviation [3, 12]: all animals dead
- mean weight of tumor nodules and standard deviation [3, 12]: all animals dead
- mean weight of rats and standard deviation [4]: 181.8 ± 12.8 g
- mean weight of tumor nodules and standard deviation [4]: 446.4 ± 13.6 mg
